# According to the COVID Moonshot data (paper PMC7615835):
# Where “and” joins values, the source holds several entries; their conditions need not be identical. Identical values can stand only once.
# Biological target: SARS-CoV-2 Main Protease (SARS-CoV-2) (UniProt P0DTD1)
row,Structure (SMILES),IC50
1,Cc1ccncc1NC(=O)Cc1cc(Cl)cc(-c2cnn(C)c2C(F)F)c1,19.3 µM
2,O=C1CCCCN1c1ccc(N(Cc2ccccc2)C(=O)Cc2[nH]nc3ccccc23)cc1,39.4 µM
3,O=C(Cc1cc(Cl)cc(CC2CC(=O)N2)c1)Nc1cncc2ccccc12 (stereo unspecified),4.57 µM
4,CC(C)(C)c1ccc(N(C(=O)c2[nH]nc(O)c2CCO)C(C(=O)NCCc2cccc(F)c2)c2cccnc2)cc1 (stereo unspecified),> 99.5 µM
5,O=C(Cc1cc(Cl)cc(Nc2ccccc2-c2ccccc2)c1)Nc1cncc2ccccc12,1.86 µM
6,CC(C)(C)c1ccc(N(C(=O)c2ccc(O)c(=O)o2)C(C(=O)NCCc2cccc(F)c2)c2cccnc2)cc1 (stereo unspecified),76.5 µM
7,C=CC(=O)N(Cc1cccc(Cl)c1)C(C(=O)NCCc1cccc(F)c1)c1cnccc1C (stereo unspecified),> 99.5 µM
8,CC(NCc1cnc2c(cnn2C)c1)c1nc2ccccc2s1 (stereo unspecified),> 99.5 µM
9,N#CC1(CS(=O)(=O)N2Cc3ccc(Cl)cc3C(C(=O)Nc3cncc4ccc(F)cc34)C2)CC1 (stereo unspecified),0.137 µM
10,O=C(Cc1cc(Cl)cc(B(O)O)c1)Nc1cncc2ccccc12,4.74 µM
11,COc1ccc2c(NC(=O)C3CCOc4ccc(Cl)cc43)noc2c1 (stereo unspecified),61.5 µM
12,CC(C)n1nccc1C(=O)N1Cc2ccc(Cl)cc2C2(CCN(c3cncc4ccccc34)C2=O)C1 (stereo unspecified),0.268 µM
13,O=C(NCCc1cccc(F)c1)C(c1cccnc1)N(C(=O)c1cocn1)c1cnc(C2CCC2)nc1 (stereo unspecified),69.1 µM
14,O=C(Nc1cncc2ccccc12)C1COc2ccc(Cl)cc21 (stereo unspecified),0.764 µM
15,CC(=O)NCCc1c[nH]c2ccc(O)cc12,> 99.5 µM
16,O=CNc1ccc(C(=O)NC(c2ccccc2)C2CCOCC2)cc1 (stereo unspecified),> 99.5 µM
17,O=c1c(O[C@@H]2O[C@H](CO)[C@H](O)[C@H](O)[C@H]2O)c(-c2ccc(O)c(O)c2)oc2cc(O)cc(O)c12 (stereo in doubt),> 99.5 µM
18,O=C(Cc1cccc(Cl)c1)Nn1cnc2ccccc21,8.3 µM
19,CS(=O)(=O)c1ccc(N2CCNCC2)cc1,> 99.5 µM
20,COc1c(Cl)cccc1OCCNC(=O)c1cc(=O)[nH]c2ccccc12,6.39 µM
21,O=C(CCl)N1CCN(S(=O)(=O)c2ccsc2)[C@H](C(=O)N2CCN(c3ccccc3)CC2)C1 (stereo in doubt),1.98 µM
22,Cc1cccc(C)c1N(C(=O)CN1CCNCC1)c1cc(Cl)cc(CC(=O)Nc2cncc3ccccc23)c1,2.74 µM
23,CCNC(=O)CN1CC2(CCN(c3cncc4ccccc34)C2=O)c2cc(Cl)ccc2S1(=O)=O (stereo unspecified),0.275 µM
24,Cc1nnc(C2Cc3ccccc3CN2C(=O)CCl)o1 (stereo unspecified),53.5 µM
25,O=C(Cc1cccc(Cl)c1)Nc1n[nH]c2ccccc12,> 99.5 µM
26,CN(C)c1ccc(C(Cc2ccsc2)C(=O)Nc2nnc3ccccn23)cc1 (stereo unspecified),> 99.5 µM

row,Structure (SMILES),IC50
1,O=C(NCCc1cccc(F)c1)C(c1cccnc1)N(C(=O)c1cocn1)c1ccc2c(c1)CCCS2(=O)=O (stereo unspecified),> 99.5 µM
2,O=C(NCCc1cccc(F)c1)C(c1cccnc1)N(C(=O)c1cocn1)c1ccc(N2CCCC2=O)cc1 (stereo unspecified),76.6 µM
3,CN(C)S(=O)(=O)N1CCc2ccc(Cl)cc2C1C(=O)Nc1cncc2ccccc12 (stereo unspecified),1.97 µM
4,CC(C)CN1CC(C)(C(=O)Nc2cncc3ccccc23)c2cc(Cl)ccc2S1(=O)=O (stereo unspecified),0.153 µM
5,O=C(Cc1cc(Cl)cc(N2CCN(CCc3ccccc3)CC2)c1)Nc1cncc2ccccc12,5.02 µM
6,O=C(Cc1cccc(Cl)c1)Nc1ncnc2ccccc12,> 99.5 µM
7,O=C(NCCc1cccc(F)c1)C(c1cccnc1)N(C(=O)c1cocn1)C1CC2CCCC2C1 (stereo unspecified),> 99.5 µM
8,O=C(Cc1cc(Cl)cc(Nc2ccc(OCc3ccccn3)c(Cl)c2)c1)Nc1cncc2ccccc12,2.09 µM
9,CNC(=O)CN1C[C@@H](C(=O)Nc2cncc3cccc(Cl)c23)c2cc(Cl)ccc2C1=O (stereo in doubt),14.6 µM
10,O=C(Cc1cc(Cl)cc(Nc2nnc(Cl)cc2Br)c1)Nc1cncc2ccccc12,1.81 µM
11,CC(C)(C)c1csc(Nc2cc(Cl)cc(CC(=O)Nc3cncc4ccccc34)c2)n1,2.09 µM
12,O=C(NCCCc1nc(=O)[nH][nH]1)C1(c2ccc(F)cc2F)CCC1,> 99.5 µM
13,Cc1ccncc1NC(=O)CN1CCCCC1,> 99.5 µM
14,Cc1nc(CN2Cc3ccc(Cl)cc3C(C(=O)Nc3cncc4ccc(F)cc34)C2)cs1 (stereo unspecified),1.12 µM
15,COCc1cc(Cl)cc(CN2CCN(C(=O)CCl)CC2)c1,4.77 µM
16,CC1(CS(=O)(=O)N2Cc3ccc(Cl)cc3C(C(=O)Nc3cncc4ccc(C(C)(C)O)cc34)C2)CS(=O)(=O)C1 (stereo unspecified),2.36 µM
17,O=C(CN1CC(C(=O)Nc2cncc3cc(F)ccc23)c2cc(Cl)ccc2C1=O)NCC(F)(F)F (stereo unspecified),0.879 µM
18,COc1cccc(C(NC(=O)Cc2cccc(Cl)c2)c2nc3ccccc3[nH]2)c1 (stereo unspecified),> 99.5 µM
19,CCS(=O)(=O)c1c(Cl)cccc1CNC(c1cccc(F)c1)C1CC1 (stereo unspecified),> 99.5 µM
20,O=C(NCc1ccccc1)[C@@H]1CN(C(=O)CCl)CCN1S(=O)(=O)c1ccsc1 (stereo in doubt),0.501 µM
21,O=C(NCc1ccccn1)[C@@H]1CN(C(=O)CCl)CCN1S(=O)(=O)c1ccsc1 (stereo in doubt),0.542 µM
22,COC(=O)C1CC1C(=O)N1CCC(c2c[nH]c3ncccc23)CC1 (stereo unspecified),> 99.5 µM
23,O=C(CCl)N1CCN(Cc2cccs2)CC1,5.66 µM and 6.77 µM
24,COc1ccc(-c2ccsc2S(=O)(=O)N2CCN(C(=O)CCl)CC2)cc1,1.05 µM
25,CCCCc1nc(-c2nccn2Cc2ccoc2)c[nH]1,14.3 µM
